Measurements: US5298496A (Chinoin Gyogyszer- ES Vegyeszeti Termekek Gyara Rt., priority 1990, dated 1994)

Legend:
[1] = UV spectrum shift of dilute aqueous SIN 1 solution (about 10 μg/ml) with cyclodextrins, diffuse lighting, room temperature; format: physicochemical; settings: for efficiency sequence concluded from the UV spectrum shift: stabilizing effect on SIN 1, ranking in words
Experimental: The solutions were stored at room temperature (20°-22° C.) in diffuse lighting and in certain periods (daily) the UV spectrum of the solutions were registered in the interval between 220-350 nm. As a control only the aqueous solution, and the 0,05N hydrochloric acid solution were used respectively. […] The pH values of the applied cyclodextrin solutions of greatest concentration differed only within ±0.2 unit from the pH value of distilled water.
The decomposition hindering, slow down effect of DIMEB (2,6-di-O-methyl-β-cyclodextrin) is definite too. In the presence of 20 mg/ml DIMEB the spectrum of the solution has shown only a shift within 1 nm after a 6 day storage. We also tested the stabilizing effect of TRIMEB (2,3,6-tri-O-methyl-β-cyclodextrin), of γ-CO, β-CO and of hydroxypropyl-β-CO. The efficiency sequence concluded from the UV spectrum shift was as follows: […]

[2] = Change of λ max of SIN 1 with time in phosphate buffers of pH 6.4, 7.0 and 7.6 with and without CDPSI (UV spectrophotometry); format: physicochemical; settings: for λ max.: 1 mg/ml SIN 1, +CDPSI 20 mg/ml
[3] = Thin-layer chromatography of SIN 1 decomposition with and without CDPSI; format: physicochemical; settings: 1 day of storage
Experimental: In such a concentration range spectrophotometric measurement dose not give a descriptive picture. For this reason the decomposition degree was determined by thin-layer chromatography in the following way: From the solutions 10 μl were dropwise added on a Kieselgel 60 F254 plate (10×10 cm, Merck). Running mixture: cyclohexane:ethyl-acetate in a ratio of 1:1. The running tub was let for 30 minutes to saturation. On the plate also SIN 1C reference solution was dropwise added. On the dropping spot the plate was dried in a cold air flow protected from light and it was let to run up to a […] height. During the running period the running tub was put on a dark place. After evaporation of the solvent the plate was evaluated visually in UV light at 254 nm.

[4] = Membrane permeation test, diffusion of SIN 1 through Visking type cellophane membrane; format: physicochemical; settings: SIN 1 alone, 1 mg/ml, 37°±1° C.
Experimental: Visking type cellophane membrane (average pore diameter 24 Angstroms) was used. […] The solutions were stirred by magnetic stirrers and were kept at 37°±1° C. […] The test was repeated in the presence of different cyclodextrins at different concentrations in the donor cell compartment.

[5] = HPLC decomposition test of SIN 1 in pH 6.3 phosphate buffer, 5 weeks; format: physicochemical; settings: room temperature, protected from light, complex in pH 6.3 phosphate buffer with 50 mg/ml CDPSI, control in distilled water
Experimental: (§1) The quantitive measurement of the decomposition degree was carried out by the HPLC method too.
(§2) HPPLC measurement circumstances to the separation of SIN 1-SIN 1 C
(§3) ______________________________________
(§4) Beckman 114 M Solvent Delivery Module,
(§5) 165 Variable Wavelength Detektor, Hewlett-Packard
(§6) Column: Ultrasphere ODS analytical column […],
(§7) Eluent: 0.05 M sodium acetate:
(§8) flowing rate: 1.0 ml/min.
(§9) chart speed: 0.5 cm/min.
(§10) retention times: tR SIN1: 2.9 min.
1. […] Complex was formed with 50 mg/ml (100 fold quantity) of CDPSI. After storage of 5 weeks the HPLC chromatograms were evaluated.

[6] = Hydrolytic decomposition of SIN 1 to SIN 1C as function of pH (literature / background); format: physicochemical; settings: diffused lighting
Experimental: It can be generally said that the sydnonimine derivatives are sensitive to extreme pH values, and are decomposed quickly. […] The process is strictly pH dependent, e.g. to achieve a decomposition of 10% (SIN 1C) 53 sec. at a pH value of 8, 15 hours at a pH of 6, 67 days at a pH of 4, and 13 years at a pH of 1-2 are necessary. (Chem. Pharm. Bull. 19/6 1079, 1971). […] The decomposition can be followed from the UV spectrum directly.

[7] = HPLC decomposition test of SIN 1 in pH 7 phosphate buffer, 4 days; format: physicochemical
Experimental: as §1, §2, §3, §4, §5, §6, §7, §8, §9, §10
2. The test was carried out in a pH 7 phosphate buffer too, choosing similar concentration circumstances.
The chromatograms obtained after 4 days storage were evaluated.

[8] = tested on: potassium depolarized strips; assay: Relaxing effect on potassium depolarized strips
[9] = tested on: rats; assay: Cardioprotective activity on rats, p.o.; format: in vivo
[10] = Transformation SIN 1→SIN 1A→SIN 1C in the presence of cyclodextrins in 0.02M acetate buffer pH 5.5 (HPLC); format: physicochemical
Text: (The SIN 1A was detected by HPLC)

[11] = 4 days, 0,5 mg/ml SIN 1, 50 mg/ml CDPSI

COC[C@H]1O[C@@H]2O[C@H]3[C@H](OC)[C@@H](OC)[C@@H](O[C@H]4[C@H](OC)[C@@H](OC)[C@@H](O[C@H]5[C@H](OC)[C@@H](OC)[C@@H](O[C@H]6[C@H](OC)[C@@H](OC)[C@@H](O[C@H]7[C@H](OC)[C@@H](OC)[C@@H](O[C@H]8[C@H](OC)[C@@H](OC)[C@@H](O[C@H]1[C@H](OC)[C@H]2OC)O[C@@H]8COC)O[C@@H]7COC)O[C@@H]6COC)O[C@@H]5COC)O[C@@H]4COC)O[C@@H]3COC [TRIMEB, 2,3,6-tri-O-methyl-β-cyclodextrin]
efficiency sequence concluded from the UV spectrum shift [1]: CDPSI>DIMEB>TRIMEB>βCO≥HPβCO

N=c1c[n+](N2CCOCC2)[n-]o1 [SIN 1, 3-morpholino-sydnonimine]
Δλ ([2]; buffer pH 6,4, after 6 days): 12 nm | λ max. ([2]; pH 6.4, 0 days (at preparation)): 291.5 nm | λ max. ([2]; pH 6.4, 1 day): 289.0 nm | λ max. ([2]; pH 6.4, 4 days): 284.9 nm | λ max. ([2]; pH 6.4, 6 days): 279.8 nm | λ max. ([2]; pH 7.0, 0 days (at preparation)): 290.6 nm | λ max. ([2]; pH 7.0, 1 day): 280.4 nm | λ max. ([2]; pH 7.0, 6 days): 277.3 nm | λ max. ([2]; pH 7.6, 0 days (at preparation)): 291.2 nm | λ max. ([2]; pH 7.6, 1 day): 276.4 nm | λ max. ([2]; pH 7.6, 6 days): 277.6 nm | unchanged SIN 1 (TLC) ([3]; pH 7 buffer): still perceptible | unchanged SIN 1 (TLC) ([3]; pH 7.6 buffer): practically no longer detectable | T 50% (diffusion half life of SIN 1) [4]: 54 min | Active ingredient content: SIN 1 [5]: 0,016 | time of decomposition in diluted aqueous solution [6]: 1 to 3 days | pH value of the solutions after storage ([7]; 4 days): 6.57 | Active ingredient content: SIN 1 [7, 11]: 0.041 mg/mL | Active ingredient content: SIN 1C [7, 11]: 0.125 mg/mL | T/2 (duration of action) ([8]; 1 or 2 μM): 47 min | T/max (time of maximal relaxation) ([8]; after administration, 1 or 2 μM): 18 min | inhibition at 1 µM ([8]; read-out: maximal relaxation of sustained contraction): 58% | activity in words ([9]; 1 mg/kg): does not exert an activity | cardioprotective activity ([9]; 1 mg/kg (complex: same active ingredient)): 11% | time to practically complete transformation into SIN 1C ([1]; aqueous solution without cyclodextrin, stored similarly): 2 to 3 days | decomposition of control solution ([1]; distilled water, 1 week, without CDPSI, in words): practically decomposed

OC[C@H]1O[C@@H]2O[C@H]3[C@H](O)[C@@H](O)[C@@H](O[C@H]4[C@H](O)[C@@H](O)[C@@H](O[C@H]5[C@H](O)[C@@H](O)[C@@H](O[C@H]6[C@H](O)[C@@H](O)[C@@H](O[C@H]7[C@H](O)[C@@H](O)[C@@H](O[C@H]8[C@H](O)[C@@H](O)[C@@H](O[C@H]1[C@H](O)[C@H]2O)O[C@@H]8CO)O[C@@H]7CO)O[C@@H]6CO)O[C@@H]5CO)O[C@@H]4CO)O[C@@H]3CO [βCO, β-cyclodextrin]
SIN 1A found vs control [10]: more than 7 fold | efficiency sequence concluded from the UV spectrum shift [1]: CDPSI>DIMEB>TRIMEB>βCO≥HPβCO

COC[C@H]1O[C@@H]2O[C@H]3[C@H](O)[C@@H](OC)[C@@H](O[C@H]4[C@H](O)[C@@H](OC)[C@@H](O[C@H]5[C@H](O)[C@@H](OC)[C@@H](O[C@H]6[C@H](O)[C@@H](OC)[C@@H](O[C@H]7[C@H](O)[C@@H](OC)[C@@H](O[C@H]8[C@H](O)[C@@H](OC)[C@@H](O[C@H]1[C@H](O)[C@H]2OC)O[C@@H]8COC)O[C@@H]7COC)O[C@@H]6COC)O[C@@H]5COC)O[C@@H]4COC)O[C@@H]3COC [DIMEB, 2,6-di-O-methyl-β-cyclodextrin]
shift of the UV spectrum ([1]; 6 day storage, 20 mg/ml DIMEB): ≤ 1 nm | efficiency sequence concluded from the UV spectrum shift [1]: CDPSI>DIMEB>TRIMEB>βCO≥HPβCO
